Laboratory results as given in patent publication US7875638B2, “Synthesis of epothilones, intermediates thereto, analogues and uses thereof” (Sloan-Kettering Institute for Cancer Research, priority 2002, dated 2011).
≈ marks a conversion by molar mass, not a printed value. Where two headings read alike, the source gives them in different places.

Experiments:
[1] = test system: CAG; assay: XTT cell growth inhibition, CAG; assay type: cell-based; details: Homo sapiens, read-out: IC50 (nM), CAG
[2] = test system: RL; assay: XTT cell growth inhibition, RL; assay type: cell-based; details: Homo sapiens, read-out: IC50 (nM), RL
[3] = test system: CAG myeloma cell lines; assay: Cell cycle analysis (propidium iodide DNA staining), CAG; assay type: cell-based, human; details: 31.25 nM
Source text: CAG myeloma cell lines were used.

[4] = test system: RPMI8226 myeloma cell lines; assay: Cell cycle analysis (propidium iodide DNA staining), RPMI8226; assay type: cell-based, human; details: 31.25 nM
Source text: RPMI8226 myeloma cell lines were used.

[5] = test system: OPM-2 myeloma cells; assay: Cell cycle analysis (propidium iodide DNA staining), OPM-2; assay type: cell-based, human
Source text: FIG. 95 is cell cycle analysis as determined by Propidium iodide DNA staining. […] The two drugs induced the same patter of cell cycle arrest.

[6] = test system: MOLP-5; assay: XTT cell growth inhibition, MOLP-5; assay type: cell-based; details: Homo sapiens, read-out: IC50 (nM), MOLP-5
[7] = test system: MDA MB435; assay: XTT cell growth inhibition, MDA MB435; assay type: cell-based; details: Homo sapiens
[8] = test system: human xenografts in nude mice, such as MX-1; design: Relative therapuetic index at MTD: key to the marks not given beside the values
[9] = test system: RPMI8226 myeloma cells; assay: Pulse exposure, washout and cell count; assay type: cell-based, human; details: for Cell death after pulse exposure: 24 hrs exposure
[10] = test system: CCRF-CEM
Protocol: Cytotoxicity Assays. In preparation for in vitro cytotoxicity assays, cells were cultured at an initial density 2-5×10^4 cells per milliliter. […] For both methods, the absorbance of each well was measured with a microplate reader (Power Wave XS, Bio-Tek, Winooski, Vt.).
A typical experiment involves culturing cells (e.g., CCRF-CEM) at an initial density of 2-5×10^4 cells per ml. […] For cells that were grown in suspension (such as CCRF-CEM and its sublines), cytotoxicitiy is measured by using the 2,-3-bis(2-methoxy-4-nitro-5-sulfophenyl)-5 carboxanilide)-2H terazodium hydroxide (XTT)-microculture tetrazonium method in duplicate in 96-well microtiter plates. For both methods, the absorbance of each well is measured with a microplate reader (EL-340, Bio-Tek, Burlington, Vt.). Each run entails six or seven concentrations of the tested drugs. Dose-effect relationship data are analyzed with the median-effect plot.
Cytotoxicity Assays: In preparation for in vitro cytotoxicity assays, cells were cultured at an initial density 2-5×10^4 cells per milliliter. […] For both methods, the absorbance of each well was measured with a microplate reader (Power Wave XS, Bio-Tek, Winooski, Vt.).

[11] = test system: CAG myeloma cell lines; assay: Annexin V staining, CAG; assay type: cell-based, human; details: 24 hours treatment
Source text: In early apoptotic cells, the membrane phospholipids phosphatidylserine (PS) is translocated from the inner to the outer leaflet of the plasma membrane, thereby exposing PS to the external cellular environment. Annexin V is a 35-36 kD Ca^2+ dependent phospholipids-binding protein that has a high affinity for PS, and binds to cells with exposed PS. In conjunction with a vital dye such as 7-amino-actinomycin (7-AAD) staining dead cells, this assay allows to identify early apoptotic cells. […] Note that X-axis is Annexin staining and Y-axis is 7-AAD staining.

[12] = test system: Human CD34+ stem cells; assay: Apoptosis and 2 weeks progenitor assays on CD34+ stem cells; assay type: cell-based; details: 24 hours incubation, umbilical cord blood CD34+
Protocol: Then drugs were washed out and annexin V staining was performed. Solid area represents vehicle control and open area represents drug treated group. There is no obvious increased apoptosis of non-cycling human CD34+ cells with short period of exposure to epothilones.
Drug cytotoxicity to hematopoietic stem cells is always a major concern. Human CD34+ stem cells were isolated from umbilical cord blood and incubated with either dEpoB or Fludelone alone for 24 hours. After washing out the drugs, apoptosis assays and 2 weeks progenitor assays were performed to evaluate the influence of epothilone to stem cells.

[13] = test system: CCRF-CEM/Taxol; assay type: cell-based, human; details: Homo sapiens, CCRF-CEM
[14] = test system: H929; assay: XTT cell growth inhibition, H929; assay type: cell-based; details: Homo sapiens
[15] = test system: OPM-2; assay: XTT cell growth inhibition, OPM-2; assay type: cell-based; details: Homo sapiens
[16] = test system: RPMI8226 myeloma cell line; assay: Annexin V staining, RPMI8226; assay type: cell-based, human; details: 24 hours treatment
Source text: In early apoptotic cells, the membrance phospholipids phosphatidylserine (PS) is translocated from the inner to the outer leaflet of the plasma membrane, thereby exposing PS to the external cellular environment. Annexin V is a 35-36 kD Ca^+2 dependent phospholipid-binding protein that has a high affinity for PS, and binds to cells with exposed PS. In conjunction with a vital dye such as 7-amino-actinomycin (7-AAD) staining dead cells, this assay allows the identification of early apoptotic cells.

[17] = test system: Human marrow stromal cell lines, HS-27A and HS-5; assay: XTT cell proliferation, normal stromal cells; details: read-out: IC50, stromal lines HS-27A and HS-5
Source text: Human marrow stromal cell lines, HS-27A and HS-5 immortalized by E6/E7 genes, have normal marrow stromal function, which support stem cell self-renewal, and proliferation.

[18] = Solubility in water; details: water
[19] = test system: human mammary carcinoma MX-1 xenograft; details: mouse, in vivo
[20] = test system: Ovarian cancer lines; assay: XTT cell growth inhibition, ovarian cancer lines (mean); assay type: cell-based; details: Homo sapiens, read-out: Mean IC50, ovarian lines
[21] = test system: HS-5; assay: XTT cell growth inhibition, HS-5; assay type: cell-based; details: Homo sapiens
[22] = test system: IGROV; assay: XTT cell growth inhibition, IGROV; assay type: cell-based; details: Homo sapiens, read-out: IC50 (nM), IGROV
[23] = test system: MRC-5; assay: XTT cell growth inhibition, MRC-5; assay type: cell-based, human
[24] = Octanol-water partition (POW) number by HPLC; assay type: physicochemical; details: HPLC estimate, pH 7.4 buffer; read-out: Lipophilicity octanol/water partition (POW)
Protocol: Determination of partition of octanol-water (POW) number. An HPLC method is used to estimate octanol-water partition. An Agilent 1100 HPLC system is used with an eclipse XDB C18 column 4.6×250 mm with a mobile phase of 60% acetonitrile/40% 25 mM potassium phosphate buffer at pH 7.4 with a flow rate of 0.8 ml per min. and the eluent is monitored at 250 nm. The standards used are benzyl alcohol, acetophenone, benzophenone, naphthalene, diphenyl ether and dibenzyl with known POW of […] respectively. Sodium dichromate is used to evaluate time zero which is 2.5 min and the retention times for the standards are 3.9, 5.4, 10.6, 14, 18.7 and 19.8 min, respectively. The k value is calculated by the formula of k=(trt−t0)/t0. Linear regression of log k vs. log POW gives a straight line with r^2=0.966. This graph is used to evaluate the POW value of the epothilone analogs.

[25] = read-out: IC50 (μM), CCRF-CEM, XTT assay following 72 h inhibition, Table 1-2
[26] = read-out: IC50, CCRF-CEM(C), XTT assay following 72 h inhibition, Table 1-3

Compound: C/C1=C/CC(/C(C)=C/c2csc(C)n2)OC(=O)C[C@H](O)C(C)(C)C(=O)[C@H](C)[C@@H](O)[C@@H](C)CCC1 (stereo partly drawn) [Compound 1, 12,13-desoxyepothilone B, reference compound]
- IC50 [1]: 61.3 ± 4.2 nM
- IC50 [2]: 90 ± 11 nM
- Cell cycle arrest [3]: absolutely blocked cell cycle at G2M phase
- Cell cycle arrest [4]: absolutely blocked cell cycle at G2M phase
- Cell cycle arrest [5]: arrested in G2M phase starting from 6 hours and absolutely blocked at 24 hours
- IC50 [6]: 68.6 ± 5.5 nM
- IC50 ([7]; MDA-MB-435, read-out: IC50 (nM), MDA MB435): 7.8 ± 4.2 nM
- Dose accomplishing complete suppression of tumor in a variety of xenografts ([8]; mouse, in vivo): 30 mg/kg
- Maximal b.w. % drop without death ([8]; mouse, in vivo): 32%
- Decrease of the number of cells from input ([9]; 4-8 hrs exposure, washout, incubation up to 48 hrs): slowed cell expansion
- Cell death after pulse exposure [9]: all cells being dead by 48 hrs
- Decrease of tumor cell numbers ([9]; one hour exposure, washout, 48 hrs): reduced but did not prevent tumor cell expansion
- IC50 ([10]; human): 0.0056 ± 0.0028 µM
- IC50 [10, 25]: 0.0036 µM
- IC50 [10, 26]: 0.0036 µM
- IC50 ([10]; read-out: IC50, CCRF-CEM, XTT assay following 72 h inhibition, Table 1-4): 0.0036 µM
- Apoptosis (Annexin V / 7-AAD) [11]: majority of cells either enter apoptosis or are dead
- Toxicity on non-cycling stem cells [12]: no significant toxicity
- IC50 ([13]; 72 h, read-out: IC50 (μM), CCRF-CEM/Taxol): 0.0057 µM
- IC50 ([13]; 72 h, read-out: IC50, C/Taxol (μM)): 0.0046 µM
- IC50 ([13]; 72 h, read-out: IC50, CCRF-CEM/Taxol): 0.0046 µM
- IC50 ([14]; NCI-H929, read-out: IC50 (nM), H929): 42.8 ± 4.5 nM
- IC50 ([15]; OPM-2, read-out: IC50 (nM), OPM-2): 38.9 ± 3.3 nM
- Apoptosis (Annexin V / 7-AAD) [16]: majority of cell either enter apoptosis or are dead
- IC50 [17]: 90 to 100 nM
- solubility [18]: 9.4 µg/mL (≈ 19.1 µM)
- Decrease in body weight without lethality [19]: 31%
- IC50 [20]: 16.5 nM
- IC50 ([21]; HS5, read-out: IC50 (nM), HS-5): 100 ± 8 nM
- IC50 [22]: 15 ± 3.8 nM
- IC50 ([23]; Homo sapiens, MRC5, read-out: IC50 (nM), MRC-5): 8.2 ± 4.3 nM
- chromatographic logP [24]: 4.4

Compound: C/C(=C\c1csc(C)n1)[C@@H]1C/C=C(/C(F)(F)F)C/C=C/[C@H](C)[C@H](O)[C@@H](C)C(=O)C(C)(C)[C@@H](O)CC(=O)O1 [Compound 29, 26-trifluoro-trans-9,10-dehydro-12,13-desoxyepothilone B]
- IC50 ([1]; Myeloma, XTT tetrazonium assay): 12 ± 1.8 nM
- IC50 ([2]; Lymphoma, XTT tetrazonium assay): 80 ± 11 nM
- Cell cycle arrest [3]: absolutely blocked cell cycle at G2M phase
- Cell cycle arrest [4]: absolutely blocked cell cycle at G2M phase
- Cell cycle arrest [5]: arrested in G2M phase starting from 6 hours and absolutely blocked at 24 hours
- IC50 ([6]; Myeloma, XTT tetrazonium assay): 14.4 ± 2.6 nM
- IC50 ([7]; MDA-MB-435, Breast Ca, XTT tetrazonium assay, read-out: IC50 (nM), MDA MB435): 5.8 ± 2.8 nM
- Maximal b.w. % drop without death ([8]; mouse, in vivo): 33%
- Relative therapuetic index at MTD ([8]; mouse, in vivo): +++++
- Curative therapeutic dose range ([8]; mouse, in vivo, iv): 10 to 30 mg/kg
- Optimal dose for i.v. infusion ([8]; mouse, in vivo, iv): 20 to 30 mg/kg
- Therapeutic dose regimen for Q2D 6 hr-iv infusion ([8]; mouse, in vivo, iv): 10 to 30 mg/kg
- Optimal dose for the oral administration ([8]; oral): 20 mg/kg, QD or 30 mg/kg Q2D
- Decrease of the number of cells from input [9]: ~50%
- Decrease of tumor cell numbers [9]: 50%
- Cell death after pulse exposure [9]: all cells being dead by 48 hrs
- Attenuation of cytotoxicity by the three fluorine atoms at C26, factor [10]: ≤ 4
- IC50 ([10]; human): 0.0032 ± 0.0003 µM
- Cytotoxicity relative to the benchmark compound dEpoB ([10]; in the cell): ~1.8 fold
- IC50 [10, 25]: 0.0035 µM
- IC50 [10, 26]: 0.0035 µM
- Apoptosis (Annexin V / 7-AAD) [11]: majority of cells either enter apoptosis or are dead
- Toxicity on non-cycling stem cells [12]: no significant toxicity
- IC50 ([13]; XTT assay following 72 h inhibition, Table 1-2, read-out: IC50 (μM), CCRF-CEM/Taxol): 0.0057 µM
- IC50 ([13]; XTT assay following 72 h inhibition, Table 1-3, read-out: IC50, C/Taxol): 0.0057 µM
- IC50 ([14]; NCI-H929, Myeloma, XTT tetrazonium assay, read-out: IC50 (nM), H929): 9.2 ± 1.9 nM
- IC50 ([15]; OPM-2, Myeloma, XTT tetrazonium assay, read-out: IC50 (nM), OPM-2): 8.2 ± 2.2 nM
- Apoptosis (Annexin V / 7-AAD) [16]: majority of cell either enter apoptosis or are dead
- IC50 [17]: 90 to 100 nM
- solubility [18]: 20 µg/mL (≈ 36.8 µM)
- Maximal body weight decrease [19]: Only minor loss of body weight
- Maximal drop of the body weight ([19]; po, 30 mg/kg): 15%
- IC50 [20]: 1.6 nM
- IC50 ([21]; HS5, Marrow stroma, XTT tetrazonium assay, read-out: IC50 (nM), HS-5): 96 ± 7 nM
- IC50 ([22]; Ovarian Ca, XTT tetrazonium assay): 2 ± 1.2 nM
- IC50 ([23]; MRC5, Embryonic lung fibroblasts (human), XTT tetrazonium assay, read-out: IC50 (nM), MRC-5): 7.4 ± 2.7 nM
- chromatographic logP [24]: 3.3
